{"source": "patent US20190099523A1", "about": "“FILM-FORMING COMPOSITION FOR A PH-DEPENDANT SUSTAINED RELEASE OF THE ACTIVE AGENT” (YISSUM RESEARCH DEVELOPMENT COMPANY OF THE HEBREW …, priority 2011, published 2019)", "type_in_all_cases": "physicochemical", "key": {"[1]": {"assay": "CHX release rate from films", "details": "CHX-1 film; phosphate buffer, 37° C., 1-8 hours; FIG. 3", "description": "Determining the CHX release rate from the films was conducted by first placing the films in 100 ml glass vessels, containing phosphate buffer at pH=5.0 and 6.8 and 50 cpm, at 37° C.\nThen, 1 cc samples were taken from the glass vessels at pre-determined intervals (each hour from 1 to 8 hrs).\nThe released CHX concentration was measured spectrophotometrically at 260 nm (Uvikon 933: Kontron Instruments). The concentration of the CHX was calculated according to a reference curve.\n(§1) In a different experiment, the films were kept at a pH 5.0 buffer for 2 hours, then at a pH 6.8 buffer for 2 hours, then at a pH 5.0 buffer for 2 hours and again at a pH 6.8 buffer for 2 hours. Samples were taken at similar intervals."}, "[2]": {"assay": "Clotrimazole release rate from films", "details": "Clotrimazole-1 film", "description": "Determining the clotrimazole release rate from the films was conducted by first placing the films in 350 ml glass vessels, containing Trizma base buffer (50 mM) with 0.2% SLS (sodium lauryl sulphate) at pH=5.0 and 6.8 and 50 cpm, at 37° C.\nThen, 1 cc samples were taken from the glass vessels at pre-determined intervals (each hour from 1 to 8 hrs). The released clotrimazole concentration was measured spectrophotometrically at 206 nm (Uvikon 933: Kontron Instruments). The concentration of the […] was calculated according to a reference curve.\nIn a different experiment, the films were kept at a pH 5.0 buffer for 2 hours, then kept at a pH 6.8 buffer for 2 hours, then at a pH 5.0 buffer for 2 hours and again at a pH 6.8 buffer for 2 hours. Samples were taken at similar intervals."}, "[3]": {"assay": "Triclosane release rate from films", "details": "Tric-1 film; Trizma base buffer 50 mM +10% SLS, 37° C.; pH 5.0 / 6.8 / 5.0 / 6.8, 2 hours each; FIG. 6", "description": "Determining the triclosane release rate from the films was conducted by first placing the films in 100 ml glass vessels, containing Trizma base buffer (50 mM, +10% SLS (sodium lauryl sulphate) at pH=5.0 and 6.8 at 50 rpm, at 37° C.\nThen, 2 cc samples were taken from the glass vessels at pre-determined intervals (each hour from 1 to 8 hrs). The released triclosane concentration was measured spectrophotometrically at 280 nm (Uvikon 933: Kontron Instruments). The concentration of the triclosane was calculated according to a reference curve.\nas §1"}}, "data": [{"smiles": "CC(=O)O.CC(=O)O.NC(=N\\CCCCCC/N=C(N)/N=C(\\N)Nc1ccc(Cl)cc1)/N=C(\\N)Nc1ccc(Cl)cc1", "note": "[CHX, Chlorhexidine-Diacetate]", "values": [{"measurement": "CHX release rate (as % of the initial amount in film), pH 5.0 compared with pH 6.8", "setting": "[1]", "value": "higher release rate at pH 5.0"}]}, {"smiles": "Clc1ccccc1C(c1ccccc1)(c1ccccc1)n1ccnc1", "note": "[clotrimazole, Clotrimazole]", "values": [{"measurement": "clotrimazole release rate (as % of the initial amount in film), pH 5.0 compared with pH 6.8", "setting": "[2]; Trizma base buffer 50 mM with 0.2% SLS, 37° C., 1-8 hours, FIG. 1", "value": "much faster"}, {"measurement": "effect of pH 6.8 on clotrimazole release rate, pH change profile", "setting": "[2]; pH 5.0 / 6.8 / 5.0 / 6.8, 2 hours each, FIG. 2", "value": "retards the rate of release"}]}, {"smiles": "Oc1cc(Cl)ccc1Oc1ccc(Cl)cc1Cl", "note": "[triclosane, Triclosane]", "values": [{"measurement": "triclosane release rate at pH 5.0 compared with pH 6.8, pH change profile", "setting": "[3]", "value": "significantly faster"}]}]}
